Results: US10533015B1, “Opioid receptor antagonist prodrugs” (Nirsum Laboratories, Inc., priority 2019, dated 2020)
Values after ≈ are worked out from the molar mass of the structure shown. Where two headings read alike, the source gives them in different places.

Experiments:
[1] = Plasma stability assay, rat plasma; format: in vitro ADME; settings: 10 μM, 37° C.
Experimental: Plasma stability determination of the test compounds in rat, dog, cynomolgus monkey and human plasma is performed using HPLC-MS. For rat, incubations are carried out in 96-well polypropylene plates in 5 aliquots of 70 μL each (one for each time point). […] Five time points are analyzed (0, 15, 120, 480 and 1440 min). For dog, monkey and human, test compounds (2 μM, final solvent concentration 1%) were also incubated at 37° C. and analyzed at five time points (0, 10, 30, 60 and 120 min). All incubations are performed in duplicates. The samples are analyzed by HPLC-MS. The percentage of parent compound remaining after incubation in plasma is determined.

[2] = Polymorph screening of solid state drug substances; settings: for Dry method and appearance: after stirring 50 °C 72 hours, dried solid; for XRPD results (Dried): dried solid after 50 °C 72 hours; for Visual observation 50° C. / Visual observation RT: target conc. 100 mg/ml
physchem = settings: 40 °C, thermodynamic from solid, heating temp. 60 °C, obs. temp. 40 °C
[3] = heating temp. 60 °C, obs. temp. 25 °C
[4] = heating temp. 40 °C, obs. temp. 40 °C
[5] = heating temp. 60 °C, obs. temp. 40 °C

Row | SMILES | % remaining at time point ([1]; 0 min) [%] | % remaining at time point ([1]; 15 min) [%] | % remaining at time point ([1]; 120 min) [%] | % remaining at time point ([1]; 480 min) [%] | % remaining at time point ([1]; 1440 min) [%] | Dry method and appearance ([2]; Acetone) | XRPD results (Dried) ([2]; Acetone) | Visual observation 50° C. ([2]; Acetone) | Visual observation RT ([2]; Acetone) | Dry method and appearance ([2]; EtOAc) | XRPD results (Dried) ([2]; EtOAc) | Visual observation 50° C. ([2]; EtOAc) | Visual observation RT ([2]; EtOAc) | Dry method and appearance ([2]; Heptane) | XRPD results (Dried) ([2]; Heptane) | Visual observation 50° C. ([2]; Heptane) | Visual observation RT ([2]; Heptane) | Dry method and appearance ([2]; Isopropanol) | XRPD results (Dried) ([2]; Isopropanol) | Visual observation 50° C. ([2]; Isopropanol) | other results
1 | C=C1CC[C@@]2(O)C3Cc4ccc(OC(=O)OCCCCCCCCCCCCCC)c5c4[C@@]2(CCN3CC2CC2)[C@H]1O5 [Compound 31, (4aS,7aS,12bS)-3-(cyclopropylmethyl)-4a-hydroxy-7-methylene-2,3,4,4a,5,6,7,7a-octahydro-1H-4,12-methanobenzofuro[3,2-e]isoquinolin-9-yl tetradecyl carbonate] | 100 | 123.2 | 73.5 | 54.4 | 46.4 | Evaporation/white powder | Pattern A | Clear | Slurry | Evaporation/white powder | Pattern A | Clear | Clear | Evaporation/white powder | Pattern A | Clear | Slurry | Evaporation/white powder | Pattern A | Clear | Visual observation RT ([2]; Isopropanol): Clear; Dry method and appearance ([2]; MTBE): Evaporation/white powder; XRPD results (Dried) ([2]; MTBE): Pattern A; Visual observation 50° C. ([2]; MTBE): Clear; Visual observation RT ([2]; MTBE): Slurry; Approximate Solubility (mg/mL) in Excipient: Cottonseed oil [3]: >416.9 mg/mL; Approximate Solubility (mg/mL) in Excipient: Sesame oil [3]: >413.5 mg/mL; Equilibrium solubility (mg/mL) Water [4]: <0.001 mg/mL
2 | C=C1CC[C@@]2(O)C3Cc4ccc(OC(=O)CCCCCCCCCCCCCCCCCCCCC)c5c4[C@@]2(CCN3CC2CC2)[C@H]1O5 [Compound 14, (4aS,7aS,12bS)-3-(cyclopropylmethyl)-4a-hydroxy-7-methylene-2,3,4,4a,5,6,7,7a-octahydro-1H-4,12-methanobenzofuro[3,2-e]isoquinolin-9-yl docosanoate] | 100 | 94 | 112 | 107 | 120 | Evaporation/white powder | Pattern A | Clear | Slimy | Evaporation/white powder | Pattern A | Clear | Slurry | Centrifugation/white powder | Pattern B | Slurry | Slurry | Evaporation/white powder | Pattern A | Clear | Visual observation RT ([2]; Isopropanol): Clear; Dry method and appearance ([2]; MTBE): Evaporation/white powder; XRPD results (Dried) ([2]; MTBE): Pattern A; Visual observation 50° C. ([2]; MTBE): Clear; Visual observation RT ([2]; MTBE): Clear; Approximate Solubility (mg/mL) in Excipient: Cottonseed oil [4]: <50 mg/mL; Approximate Solubility (mg/mL) in Excipient: Cottonseed oil [5]: <25 mg/mL; Approximate Solubility (mg/mL) in Excipient: Ethanol [4]: 69 to 83 mg/mL; Approximate Solubility (mg/mL) in Excipient: Sesame oil [4]: <51 mg/mL; Approximate Solubility (mg/mL) in Excipient: Sesame oil [5]: <25 mg/mL; Equilibrium solubility (mg/mL) Water (compound after slurry in EtOAc, temperatures N/A): <0.0005 mg/mL; Equilibrium solubility (mg/mL) Water (compound after slurry in Heptane, temperatures N/A): <0.0005 mg/mL
3 | CCCCCCCCCCCCCCCCOC(=O)Oc1ccc2c3c1O[C@H]1C(=O)CC[C@@]4(O)C(C2)N(CC2CC2)CC[C@]314 [Compound 21, (4aS,7aR,12bS)-3-(cyclopropylmethyl)-4a-hydroxy-7-oxo-2,3,4,4a,5,6,7,7a-octahydro-1H-4,12-methanobenzofuro[3,2-e]isoquinolin-9-yl hexadecyl carbonate] | 100 | 73.5 | 68.3 | 59.8 | 40.9 | Evaporation/white powder | Pattern A | Clear | Slurry | Evaporation/white powder | Pattern A | Clear | Slurry | Evaporation/white powder | Pattern A | Clear | Slurry | Evaporation/white powder | Pattern A | Clear | Visual observation RT ([2]; Isopropanol): Slurry; Dry method and appearance ([2]; MTBE): Evaporation/white powder; XRPD results (Dried) ([2]; MTBE): Pattern A; Visual observation 50° C. ([2]; MTBE): Clear; Visual observation RT ([2]; MTBE): Clear; Approximate Solubility (mg/mL) in Excipient: Cottonseed oil [5]: 101 to 134.8 mg/mL; Approximate Solubility (mg/mL) in Excipient: Ethanol [5]: 50 to 100 mg/mL; Approximate Solubility (mg/mL) in Excipient: Sesame oil [5]: 101 to 134.5 mg/mL
4 | C=C1CC[C@@]2(O)[C@H]3Cc4ccc(O)c5c4[C@@]2(CCN3CC2CC2)[C@H]1O5 [nalmefene, 17-cyclopropylmethyl-4,5α-epoxy-6-methylenemorphinan-3,14-diol] |  |  |  |  |  |  |  |  |  |  |  |  |  |  |  |  |  |  |  |  | solubility (physchem; oil or lipid, Approximate Solubility (mg/mL) in Excipient: Cottonseed oil, Cottonseed oil): < 25 mg/mL; solubility (physchem; oil or lipid, Approximate Solubility (mg/mL) in Excipient: Sesame oil, Sesame oil): < 25.5 mg/mL; solubility (physchem; organic solvent or mixture, Approximate Solubility (mg/mL) in Excipient: Ethanol, Ethanol): 102 to 137 mg/mL (≈ 300 to 404 mM)
5 | CCCCCCCCCCCCOC(=O)Oc1ccc2c3c1O[C@H]1C(=O)CC[C@@]4(O)C(C2)N(CC2CC2)CC[C@]314 [Compound 11, (4aS,7aR,12bS)-3-(cyclopropylmethyl)-4a-hydroxy-7-oxo-2,3,4,4a,5,6,7,7a-octahydro-1H-4,12-methanobenzofuro[3,2-e]isoquinolin-9-yl dodecyl carbonate] | 100 | 0.7 | 0.3 | 0.2 | 0 | Evaporation/white powder | Pattern A | Clear | Slurry | Evaporation/white powder | Pattern A | Clear | Slurry | Evaporation/white powder | Pattern B | Clear | Clear | Evaporation/white powder | Pattern A | Clear | Visual observation RT ([2]; Isopropanol): Slurry; Dry method and appearance ([2]; MTBE): Evaporation/white powder; XRPD results (Dried) ([2]; MTBE): Pattern A; Visual observation 50° C. ([2]; MTBE): Clear; Visual observation RT ([2]; MTBE): Clear; Approximate Solubility (mg/mL) in Excipient: Cottonseed oil [4]: >407 mg/mL; Approximate Solubility (mg/mL) in Excipient: Cottonseed oil [3]: <51 mg/mL; Approximate Solubility (mg/mL) in Excipient: Ethanol [4]: >218 mg/mL; Approximate Solubility (mg/mL) in Excipient: Sesame oil [4]: >407 mg/mL; Approximate Solubility (mg/mL) in Excipient: Sesame oil [3]: <50 mg/mL
